The text below walks through data of patent US8183238B2, “Bicyclic and tricyclic compounds as KAT II inhibitors” (priority 2009, dated 2012).

The nature of data set [1]: Prodrug in vivo pharmacokinetics in dogs (plasma, LC-MS-MS). Also on record: species or system Dog (Beagle). The following applies: for AUC / Cmax / Tmax / half-life: Beagle, dog, plasma; for F: calculated using IV AUC of 497 ng · h/mL. As for the experimental part: Test substances (Examples 4 and 71-73) were administered by oral gavage to groups of two dogs. Example 71 was also administered intravenously.
Blood samples were taken at various times after administration and submitted to analysis for the parent drug (Example 71) and pro-drug (Examples 72 and 73) using an LC-MS-MS assay. Pharmacokinetic parameters derived from the plasma analytical data were determined using Watson LIMS 7.2.003 (Thermo Fisher Scientific, Waltham, Mass.). The results are given in FIG. 1 and Tables 8, 9, 10, and 11.

Data set [2] can be described thus: Prodrug in vivo pharmacokinetics in monkeys (plasma, LC-MS-MS). The following applies: monkeys, oral gavage of Example 72, all time points. Also on record: species or system Monkey (Cynomolgus). As for the experimental part: Test substances (Examples 4 and 71-73) were administered by oral gavage to groups of two monkeys.
Blood samples were taken at various times after administration and submitted to analysis for the parent drug (Example 4 and Example 71) and pro-drug (Examples 72 and 73) using an LC-MS-MS assay. […] Pharmacokinetic parameters derived from the plasma analytical data were determined using Watson LIMS 7.2.003 (Thermo Fisher Scientific, Waltham, Mass.). The results are given in FIG. 2 and Tables 13, 14, and 15.

For data set [3], the target named is human KAT II (hKAT II) enzyme (Homo sapiens, UniProt Q8N5Z0). Nature of the data set: KAT II Inhibition Spectra Assay. The format is biochemical. As to conditions: Table 6; hKAT II, decrease in OD370, 37° C., 15-20 h; read-out: KATII IC50. The gist of the method:
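hKAT II (15 nM, 3× stock) converts L-kynurenine (3 mM, 3× stock) with α-ketoglutarate and PLP in Tris acetate; 15–20 h at 37 °C. Inhibition of the OD370 decrease read versus DMSO wells across a concentration range gives IC50.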

Where [4] appears, read: po, 1 mg/kg, Example 72 in dog plasma after oral Example 72 (1 mg/kg active), Dog 1.
The mark [5] stands for this setting: po, 1 mg/kg, Example 72 in dog plasma after oral Example 72 (1 mg/kg active), Dog 2.
[6] abbreviates: po, 1 mg/kg, Example 72 in dog plasma after oral Example 72 (1 mg/kg active), Mean.
Where [7] appears, read: Example 72 in dog plasma after oral Example 72 (1 mg/kg active), Dog 1.
The mark [8] stands for this setting: Example 72 in dog plasma after oral Example 72 (1 mg/kg active), Dog 2.
[9] abbreviates: Example 72 in dog plasma after oral Example 72 (1 mg/kg active), Mean.

pIC50: −log10 of the molar value. Where a name gives a salt, the structure may show the parent alone. Read-outs that look alike come from different tables or passages of the source.

Chain of human KAT II (hKAT II) enzyme (Q8N5Z0 30-425): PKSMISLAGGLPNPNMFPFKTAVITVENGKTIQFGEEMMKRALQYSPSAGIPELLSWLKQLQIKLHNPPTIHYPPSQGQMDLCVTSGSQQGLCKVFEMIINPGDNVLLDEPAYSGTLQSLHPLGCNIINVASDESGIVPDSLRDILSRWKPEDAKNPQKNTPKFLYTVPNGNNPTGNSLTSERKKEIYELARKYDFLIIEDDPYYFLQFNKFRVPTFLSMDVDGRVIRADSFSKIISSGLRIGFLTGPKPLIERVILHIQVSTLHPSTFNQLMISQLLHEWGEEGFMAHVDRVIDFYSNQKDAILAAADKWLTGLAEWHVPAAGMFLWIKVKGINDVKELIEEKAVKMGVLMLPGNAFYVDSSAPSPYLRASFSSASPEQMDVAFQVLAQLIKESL

The AUC is the area under the concentration-time curve, a measure of exposure. The Cmax is the maximum level reached in the sampled fluid or tissue. A word on the Tmax: it is the time from dosing to the highest level. Usually half-life stands for how long it takes for the measured level to halve. As to `CN(C)C(=O)ON1C(=O)[C@@H](N)Cc2cc(Oc3ccccc3)ccc21` [Example 72, (3S)-3-amino-1-[(dimethylcarbamoyl)oxy]-6-phenoxy-3,4-dihydroquinolin-2(1H)-one], the AUC in data set [1] (iv, 0.47 mg/kg, exposure of Example 72 in dogs following intravenous administration of Example 72 at 0.47 mg/kg, read-out: AUC) was 497 ng·h/mL; in data set [1] (po, 1 mg/kg, Example 72 in dog plasma after oral Example 72 (1 mg/kg active), Dog 1, read-out: AUC), 402 ng·h/mL; in data set [1] (po, 1 mg/kg, Example 72 in dog plasma after oral Example 72 (1 mg/kg active), Dog 1, read-out: AUC Extrap) it was 455 ng·h/mL; in data set [1] (po, 1 mg/kg, Example 72 in dog plasma after oral Example 72 (1 mg/kg active), Dog 2, read-out: AUC) it was 721 ng·h/mL; in data set [1] (po, 1 mg/kg, Example 72 in dog plasma after oral Example 72 (1 mg/kg active), Dog 2, read-out: AUC Extrap) it was 790 ng·h/mL; in data set [1] (po, 1 mg/kg, Example 72 in dog plasma after oral Example 72 (1 mg/kg active), Mean, read-out: AUC) it was 562 ng·h/mL. Also, the AUC in data set [1] (po, 1 mg/kg, Example 72 in dog plasma after oral Example 72 (1 mg/kg active), Mean, read-out: AUC Extrap) amounted to 623 ng·h/mL. Besides, the Cmax in data set [1] (setting [4]) was determined as 142 ng/mL; in data set [1] (setting [5]), 248 ng/mL; in data set [1] (setting [6]), 195 ng/mL. The time of peak concentration (Tmax) is 0.5 h in data set [1] (setting [4]), 1 h in data set [1] (setting [5]) and 0.75 h in data set [1] (setting [6]). Moreover, the half-life in data set [1] (setting [4]) is 2.31 h; in data set [1] (setting [5]), 1.94 h; in data set [1] (setting [6]), 2.13 h. Moreover, the “% AUC Extrap” value in data set [1] (setting [7]) stood at 11.7%; in data set [1] (setting [8]), 8.77%; in data set [1] (setting [9]), 10.2%. Moreover, the F is listed as 38% in data set [1] (setting [7]), 54% in data set [1] (setting [8]) and 46% in data set [1] (setting [9]). Moreover, in data set [2], the “Plasma levels of Example 72” value is listed as “below the limit of quantitation”.
In general, pIC50 refers to the negative decadic logarithm of the IC50, by convention in mol/L. Take `N[C@H]1Cc2cc(Oc3ccc(F)c(C(F)(F)F)c3)ccc2N(O)C1=O` [Example 159, (3S)-3-amino-6-[4-fluoro-3-(trifluoromethyl)phenoxy]-1-hydroxy-3,4-dihydroquinolin-2(1H)-one, trifluoroacetate salt]: the pIC50 in data set [3] was 6.96.
On the same count and under the same terms, the value for `N[C@H]1Cc2cc(Oc3cccc(C(F)(F)F)c3F)ccc2N(O)C1=O` [Example 160, (3S)-3-amino-6-[2-fluoro-3-(trifluoromethyl)phenoxy]-1-hydroxy-3,4-dihydroquinolin-2(1H)-one, trifluoroacetate salt] was 7.00; that for `N[C@H]1Cc2cc(Oc3ccc(F)cc3Cl)ccc2N(O)C1=O` [Example 161, (3S)-3-amino-6-(2-chloro-4-fluorophenoxy)-1-hydroxy-3,4-dihydroquinolin-2(1H)-one, trifluoroacetate salt] was 7.27; that for `N[C@H]1Cc2cc(Oc3ccc(F)c(F)c3)ccc2N(O)C1=O` [Example 162, (3S)-3-amino-6-(3,4-difluorophenoxy)-1-hydroxy-3,4-dihydroquinolin-2(1H)-one, trifluoroacetate salt] was 7.33.
The same measure, in the same setting: the value for `N[C@H]1Cc2cc(Oc3ccc(Cl)c(Cl)c3)ccc2N(O)C1=O` [Example 163, (3S)-3-amino-6-(3,4-dichlorophenoxy)-1-hydroxy-3,4-dihydroquinolin-2(1H)-one, trifluoroacetate salt] was 7.22; that for `N#Cc1ccc(Oc2ccc3c(c2)C[C@H](N)C(=O)N3O)cc1C(F)(F)F` [Example 164, 4-{[(3S)-3-amino-1-hydroxy-2-oxo-1,2,3,4-tetrahydroquinolin-6-yl]oxy}-2-(trifluoromethyl)benzonitrile, trifluoroacetate salt] was 7.37; that for `Cc1ccc(F)cc1Oc1ccc2c(c1)C[C@H](N)C(=O)N2O` [Example 165, (3S)-3-amino-6-(5-fluoro-2-methylphenoxy)-1-hydroxy-3,4-dihydroquinolin-2(1H)-one, trifluoroacetate salt] was 7.02.
On the same count and under the same terms, the value for `N[C@H]1Cc2cc(Oc3cc(F)cc(C(F)(F)F)c3)ccc2N(O)C1=O` [Example 166, (3S)-3-amino-6-[3-fluoro-5-(trifluoromethyl)phenoxy]-1-hydroxy-3,4-dihydroquinolin-2(1H)-one, trifluoroacetate salt] was 6.89.
For the compound `N[C@H]1Cc2cc(Oc3ccc(Cl)c(F)c3)ccc2N(O)C1=O` [Example 167, (3S)-3-amino-6-(4-chloro-3-fluorophenoxy)-1-hydroxy-3,4-dihydroquinolin-2(1H)-one, trifluoroacetate salt], in data set [3], the pIC50 was 6.98.
For `N[C@H]1Cc2cc(Oc3cc(F)cc(Cl)c3)ccc2N(O)C1=O` [Example 168, (3S)-3-amino-6-(3-chloro-5-fluorophenoxy)-1-hydroxy-3,4-dihydroquinolin-2(1H)-one, trifluoroacetate salt], in data set [3], the pIC50 is 7.27.
On to `N[C@H]1Cc2cc(Oc3cccc(OC(F)(F)F)c3)ccc2N(O)C1=O` [Example 169, (3S)-3-amino-1-hydroxy-6-[3-(trifluoromethoxy)phenoxy]-3,4-dihydroquinolin-2(1H)-one, trifluoroacetate salt], for which the pIC50 in data set [3] is 6.91.
With `N[C@H]1Cc2cc(Oc3cncc(Cl)c3)ccc2N(O)C1=O` [Example 170, (3S)-3-amino-6-[(5-chloropyridin-3-yl)oxy]-1-hydroxy-3,4-dihydroquinolin-2(1H)-one, ammonium salt], the pIC50 in data set [3] is 7.54.
Same read-out and setting: the value for `COc1ccc(Oc2ccc3c(c2)CC(N)C(=O)N3O)cn1` (stereo not drawn) [Example 171, 3-amino-1-hydroxy-6-[(6-methoxypyridin-3-yl)oxy]-3,4-dihydroquinolin-2(1H)-one, ammonium salt] was 7.37.
